{"source": "patent US5482934A", "about": "“Pregna-1,4-diene3,20-dione-16-17-acetal-21 esters, process for their preparation, composition, and methods for the treatment of inflammatory conditions” (priority 1994, dated 1996)", "key": {"[1]": {"tested_on": "cotton-pellet-induced granuloma", "assay": "cotton pellet granuloma bioassay, topical anti-inflammatory activity (inhibitory effect on granuloma weight)", "type": "in vivo, Male Wistar rats", "conditions": "for Topical anti-inflammatory activity (Cotton Pellet), ED50: local application on implanted pellet, 4 dosage levels, 7 days; for Therapeutic index systemic ED50 / topical ED50: thymus inhibition ED50 / cotton pellet ED50, 10080 min", "description": "(§1) The glucocorticoid activity of these products was studied in comparison with that of budesonide: pregna-1,4-diene-3,20-dione, 16,17-butylidenebis(oxy)-11-21-dihydroxy-(11β,16α). The pharmacologic action on the acetonides triamcinolone acetonide and flunisolide was also studied.\n(§2) Anti-inflammatory effects of the compounds were screened in the cotton pellet granuloma bioassay for identification of lead compounds. (Meier et al., Eperimentia 6, 469, 1950). Male Wistar rats were used, ranging in weight between 90 and 120 g, at the rate of 10 animals per group, previously identified and quartered in individual cages. The animals had free access to feed and drink throughout the trial.\n(§3) Cotton pellets weighing exactly 20 mg were prepared, sterilized for 2 hr. at 160° C. soaked with 50 λl solution of the product or with the solvent before implantation, and subsequently the solvent is evaporated before application. The implantation was performed subcutaneously in the axillary zone of the animals previously anesthetized with ether (right axilla pellet with product, left axilla pellet with solvent). Animals in which pellets without product were implanted were used as controls.\n(§4) The drug was applied in alcohol solution at 4 dosage levels. Once the pellets were implanted, the animals were kept under normal rearing conditions, isolated for 7 days and then weighed, after which they were sacrificed by exsanguination.\nThe topical activity was determined by the inhibitory effect on the weight of the cotton-pellet-induced granuloma; the granulomas were extracted and weighed (pellet and connective tissue surrounding them, dried for 24 hr in a 60° oven, and weighed).\n(§5) Anti-inflammatory ED50 (topical effect), thymus inhibition ED50 (systemic effect), therapeutic index (systemic ED50 /topical ED50), and the therapeutic index relative to budesonide (=1).\n(§6) All of the ED50 values were calculated from the linear regression lines with the confidence limits."}, "[2]": {"tested_on": "thymus", "parameters": "species or system Male Wistar rats", "conditions": "rat, in vivo, 10080 min", "description": "as §1, with “All of the steroids described in this invention are pharmacologically active compounds. The glucocorticoid” for “The glucocorticoid”\nas §2, §3, §4\nExtraction and weighing of the thymus and adrenals were performed in all animals and a fluorometric determination of the cortisol plasma levels was made. We consider the variation in these parameters indicative of the systemic glucocorticoid activity of the products.\nas §5, §6"}, "[3]": {"conditions": "corticosteroids used in aerosol form; cited from earlier work"}}}
{"smiles": "CCCCC1OC2CC3C4CCC5=CC(=O)C=CC5(C)C4C(O)CC3(C)C2(C(=O)COC(C)=O)O1", "note": "[Compound 10, (22R,S)-of pregna 1,4-diene-3,20-dione-21-(acetyloxy)-11-hydroxy-16,17-(pentylidene) bis(oxy)-(11β,16α)]", "values": [{"measurement": "Topical anti-inflammatory activity (Cotton Pellet), ED50", "setting": "[1]", "result": 59.9, "unit": "μg/pellet"}, {"measurement": "Therapeutic index systemic ED50 / topical ED50", "setting": "[1]", "result": 9.7}, {"measurement": "Systemic glucocorticoid activity (Thymus inhibition), ED50", "setting": "[2]", "result": 583.2, "unit": "μg/pellet"}]}
{"smiles": "CCCCC1OC2CC3C4CCC5=CC(=O)C=CC5(C)C4C(O)CC3(C)C2(C(=O)COC(C)=O)O1", "note": "(centres unmarked) [Compound 12]", "values": [{"measurement": "Topical anti-inflammatory activity (Cotton Pellet), ED50", "setting": "[1]", "result": 74.7, "unit": "μg/pellet"}, {"measurement": "Therapeutic index systemic ED50 / topical ED50", "setting": "[1]", "result": 7.9}, {"measurement": "Systemic glucocorticoid activity (Thymus inhibition), ED50", "setting": "[2]", "result": 592.2, "unit": "μg/pellet"}]}
{"smiles": "CCCCC(=O)O[C@]1(C(=O)CO)[C@@H](C)C[C@H]2[C@@H]3CCC4=CC(=O)C=C[C@]4(C)[C@@]3(F)[C@@H](O)C[C@@]21C", "note": "[betamethasone valerate]", "values": [{"measurement": "effect in aerosol form", "setting": "[3]", "result": "highly positive effect"}]}
{"smiles": "CC(C)C(=O)OCC(=O)C12OC(C3CCCCC3)OC1CC1C3CCC4=CC(=O)C=CC4(C)C3C(O)CC12C", "note": "[Compound 8, (22,S)-pregna 1,4-diene-3,20-dione 16,17-[[cyclohexyl-methylidyne]bis (oxy)]-11-hydroxy-21-(2-methyl-1-oxo-propoxy)-(11β,16α)]", "values": [{"measurement": "Topical anti-inflammatory activity (Cotton Pellet), ED50", "setting": "[1]", "result": 20.5, "unit": "μg/pellet"}, {"measurement": "Therapeutic index systemic ED50 / topical ED50", "setting": "[1]", "result": 29.6}, {"measurement": "Systemic glucocorticoid activity (Thymus inhibition), ED50", "setting": "[2]", "result": 608, "unit": "μg/pellet"}]}
{"smiles": "CCC(=O)OCC(=O)[C@@]1(OC(=O)CC)[C@@H](C)C[C@H]2[C@@H]3CCC4=CC(=O)C=C[C@]4(C)[C@@]3(Cl)[C@@H](O)C[C@@]21C", "note": "[beclomethasone dipropionate]", "values": [{"measurement": "effect in aerosol form", "setting": "[3]", "result": "highly positive effect"}]}
{"smiles": "CC(C)C(=O)OCC(=O)C12OC(C3CCCCC3)OC1CC1C3CC(F)C4=CC(=O)C=CC4(C)C3(F)C(O)CC12C", "note": "[Compound 14, (22S)-pregna-1,4-diene-3,20-dione-16,17-(cyclohexylmethylidine)-bis-(oxy)-6,9-difluoro-11-hydroxy-21-(s-methyl-1-oxo-propoxy)-(11β,16α)]", "values": [{"measurement": "Topical anti-inflammatory activity (Cotton Pellet), ED50", "setting": "[1]", "result": 3.6, "unit": "μg/pellet"}, {"measurement": "Therapeutic index systemic ED50 / topical ED50", "setting": "[1]", "result": 13.6}, {"measurement": "Systemic glucocorticoid activity (Thymus inhibition), ED50", "setting": "[2]", "result": 49, "unit": "μg/pellet"}]}
{"smiles": "CC(C)C(=O)OCC(=O)C12OC(C3CCCCC3)OC1CC1C3CC(F)C4=CC(=O)C=CC4(C)C3(F)C(O)CC12C", "note": "[Compound 13, (22R,S)-pregna 1,4-diene-3,20-dione-16,17-(cyclohyxylmethylidine)-bis-(oxy)-6,9-difluoro-11-hydroxy-21-(methyl-1-oxo-propoxy)-(11β,16α)]", "values": [{"measurement": "Topical anti-inflammatory activity (Cotton Pellet), ED50", "setting": "[1]", "result": 4.5, "unit": "μg/pellet"}, {"measurement": "Therapeutic index systemic ED50 / topical ED50", "setting": "[1]", "result": 12}, {"measurement": "Systemic glucocorticoid activity (Thymus inhibition), ED50", "setting": "[2]", "result": 54, "unit": "μg/pellet"}]}
{"smiles": "CC(C)C(=O)OCC(=O)C12OC(C3CCCCC3)OC1CC1C3CCC4=CC(=O)C=CC4(C)C3C(O)CC12C", "note": "(centres unmarked) [Compound 9]", "values": [{"measurement": "Topical anti-inflammatory activity (Cotton Pellet), ED50", "setting": "[1]", "result": 25.4, "unit": "μg/pellet"}, {"measurement": "Therapeutic index systemic ED50 / topical ED50", "setting": "[1]", "result": 26.2}, {"measurement": "Systemic glucocorticoid activity (Thymus inhibition), ED50", "setting": "[2]", "result": 667.1, "unit": "μg/pellet"}]}
{"smiles": "CC1(C)O[C@@H]2C[C@H]3[C@@H]4CCC5=CC(=O)C=C[C@]5(C)[C@@]4(F)[C@@H](O)C[C@]3(C)[C@]2(C(=O)CO)O1", "note": "(stereo in doubt) [TRIAMCINOLONE ACETONIDE, triamcinolone acetonide, reference compound]", "values": [{"measurement": "Topical anti-inflammatory activity (Cotton Pellet), ED50", "setting": "[1]", "result": 220.7, "unit": "μg/pellet"}, {"measurement": "Therapeutic index systemic ED50 / topical ED50", "setting": "[1]", "result": 0.7}, {"measurement": "effect in aerosol form", "setting": "[3]", "result": "highly positive effect"}, {"measurement": "Systemic glucocorticoid activity (Thymus inhibition), ED50", "setting": "[2]", "result": 156.4, "unit": "μg/pellet"}]}
{"smiles": "CCCC1O[C@@H]2C[C@H]3[C@@H]4CCC5=CC(=O)C=C[C@]5(C)[C@H]4[C@@H](O)C[C@]3(C)[C@]2(C(=O)CO)O1", "note": "(stereo partly drawn) [BUDESONIDE, pregna-1,4-diene-3,20-dione, 16,17-butylidenebis(oxy)-11-21-dihydroxy-(11β,16α), reference compound]", "values": [{"measurement": "Topical anti-inflammatory activity (Cotton Pellet), ED50", "setting": "[1]", "result": 163.6, "unit": "μg/pellet"}, {"measurement": "Therapeutic index systemic ED50 / topical ED50", "setting": "[1]", "result": 1.09}, {"measurement": "effect in aerosol form", "setting": "[3]", "result": "highly positive effect"}, {"measurement": "Systemic glucocorticoid activity (Thymus inhibition), ED50", "setting": "[2]", "result": 178.6, "unit": "μg/pellet"}]}
{"smiles": "CC(C)C(=O)OCC(=O)C12OC(C3CCCCC3)OC1CC1C3CCC4=CC(=O)C=CC4(C)C3C(O)CC12C", "note": "[Compound 7, (22R,S)-pregna 1,4-diene-3,20-dione, 16,17-[[cyclohexylmethylidyne]bis (oxy)]-11-hydroxy-21-(2-methyl-1-oxo-propoxy)-(11β,16α)]", "values": [{"measurement": "Topical anti-inflammatory activity (Cotton Pellet), ED50", "setting": "[1]", "result": 21.7, "unit": "μg/pellet"}, {"measurement": "Therapeutic index systemic ED50 / topical ED50", "setting": "[1]", "result": 28.3}, {"measurement": "Systemic glucocorticoid activity (Thymus inhibition), ED50", "setting": "[2]", "result": 614.7, "unit": "μg/pellet"}]}
{"smiles": "CC1(C)O[C@@H]2C[C@H]3[C@@H]4C[C@H](F)C5=CC(=O)C=C[C@]5(C)[C@H]4[C@@H](O)C[C@]3(C)[C@]2(C(=O)CO)O1", "note": "[FLUNISOLIDE, flunisolide, reference compound]", "values": [{"measurement": "Topical anti-inflammatory activity (Cotton Pellet), ED50", "setting": "[1]", "result": 351.6, "unit": "μg/pellet"}, {"measurement": "Therapeutic index systemic ED50 / topical ED50", "setting": "[1]", "result": 0.44}, {"measurement": "effect in aerosol form", "setting": "[3]", "result": "highly positive effect"}, {"measurement": "Systemic glucocorticoid activity (Thymus inhibition), ED50", "setting": "[2]", "result": 156, "unit": "μg/pellet"}]}
{"smiles": "CCCCC1OC2CC3C4CCC5=CC(=O)C=CC5(C)C4C(O)CC3(C)C2(C(=O)COC(C)=O)O1", "note": "[Compound 11, (22S)-pregna 1,4-diene-3,20-dione-21-(acetyloxy)-11-hydroxy-16,17-(pentylidene)-bis-(oxy)-(11β,16α)]", "values": [{"measurement": "Topical anti-inflammatory activity (Cotton Pellet), ED50", "setting": "[1]", "result": 43, "unit": "μg/pellet"}, {"measurement": "Therapeutic index systemic ED50 / topical ED50", "setting": "[1]", "result": 12.9}, {"measurement": "Systemic glucocorticoid activity (Thymus inhibition), ED50", "setting": "[2]", "result": 555.3, "unit": "μg/pellet"}]}
{"smiles": "CC(C)C(=O)OCC(=O)C12OC(C3CCCCC3)OC1CC1C3CC(F)C4=CC(=O)C=CC4(C)C3(F)C(O)CC12C", "note": "(centres unmarked) [Compound 15]", "values": [{"measurement": "Topical anti-inflammatory activity (Cotton Pellet), ED50", "setting": "[1]", "result": 5.2, "unit": "μg/pellet"}, {"measurement": "Therapeutic index systemic ED50 / topical ED50", "setting": "[1]", "result": 10.8}, {"measurement": "Systemic glucocorticoid activity (Thymus inhibition), ED50", "setting": "[2]", "result": 56.3, "unit": "μg/pellet"}]}
